Measured values taken from patent publication US20170087165A1, “METHODS FOR REDUCING THE OCCURRENCE OF PRETERM DELIVERY AND OTHER PREGNANCY-RELATED CONDITIONS” (Lumara Health IP, Ltd., priority 2009, published 2017).
Where “and” joins values, the source holds several entries; their conditions need not be identical. Equal values may be shown once.

Columns and labels:
[1] = Analysis of the Example 1 trial by smoking status during pregnancy; assay type: in vivo, human; settings: women who smoked during pregnancy; 95% CI 0.0830, 0.5297
Procedure: (§1) In a double-blind, placebo-controlled trial, 463 pregnant women having a documented history of spontaneous preterm delivery received weekly injections of 250 mg […] caproate (17-HPC) or an inert castor oil placebo beginning at 16 to 20weeks of gestation and continuing until delivery or 36 weeks of gestation, whichever occurred first. […] A 2:1 ratio was used for the assignment of women to the 17-HPC or placebo group, since those in the placebo group would be subjected to painful injections on a weekly basis with no possibility of direct benefit. Thus, there were 310 women in the 17-HPC group and 153 women in the placebo group. The baseline characteristics of the women in the two groups were similar in terms of the mean duration of gestation of the qualifying delivery, the mean duration of gestation at the time of randomization, race or ethnic group, marital status, body mass index (BMI), educational level, smoking status, and substance use during pregnancy. The women in the placebo group had had more previous preterm deliveries (mean of 1.6 vs. 1.4 in the 17-HPC group). 91.5% of the study participants were compliant with all of their injections, noncompliance being defined as a gap of 10 days or more between any two injections, and there was no difference in the rate of compliance between the placebo group and the 17-HPC group. Preterm delivery was defined as delivery at less than 37 completed weeks (259 days) of gestation, calculated on the basis of the date of the last menstrual period and ultrasonography results.
(§2) In the clinical trial described in Example 1, 22.6% ([…]) of subjects in the 17-HPC group and 19.6% (30/153) of subjects in the placebo group smoked during pregnancy. […] Thus, it was apparent in the data that smoking increased the risk f or preterm delivery, measured either as delivery prior to 37 weeks of gestation.

[2] = test system: women who smoked during pregnancy; assay: as above; assay type: in vivo, human
Procedure: as §1, §2

[3] = test system: pregnant women having a documented history of spontaneous preterm delivery; settings: cited from earlier work
[4] = test system: children of the mothers who participated in the trial; settings: cited from earlier work

SMILES: CCCCCC(=O)O[C@]1(C(C)=O)CC[C@H]2[C@@H]3CCC4=CC(=O)CC[C@]4(C)[C@H]3CC[C@@]21C [17-HPC, 17alpha-hydroxyprogesterone caproate]
- odds ratio of preterm delivery (<37 weeks) 17-HPC vs placebo [1]: 0.21 and 0.2097
- proportion of deliveries at less than 37 weeks of gestation, subjects who did not smoke during pregnancy ([2]; not smoking during pregnancy, 92/240, placebo 51.2% (63/123)): 38.3%
- proportion of deliveries at less than 37 weeks of gestation, subjects who smoked during pregnancy ([2]; smoking during pregnancy, 23/70, placebo 70% (21/30)): 32.9%
- incidence of preterm delivery at less than 37 weeks of gestation ([3]; 250 mg weekly injection from 16-20 weeks of gestation until delivery or 36 weeks, 111/306, placebo 54.9%): 36.3%
- incidence of delivery at less than 32 weeks ([3]; 250 mg weekly, 35/306, P=0.02): 11.4%
- incidence of delivery at less than 35 weeks of gestation ([3]; 250 mg weekly, 63/306, placebo 30.7%, P=0.02): 20.6%
- incidence of necrotizing enterocolitis ([3]; infants of treated women, 0/305, placebo 2.6%, P=0.01): 0%
- incidence of intraventricular hemorrhage of any grade ([3]; infants of treated women, 4/305, placebo 5.2%): 1.3%
- incidence of birth weight of less than 1500 g ([3]; infants of treated women, 26/301, placebo 13.9%, P=0.08, non-significant): 8.6%
- incidence of need for supplemental oxygen ([3]; infants of treated women, 45/303, placebo 23.8%): 14.9%
- incidence of birth weight of less than 2500 g ([3]; infants of treated women, 82/301, placebo 41.1%, P=0.003): 27.2%
- rate of intraventricular hemorrhage of grades 3 to 4 ([3]; versus placebo group): no significant difference between groups
- rates of infant death, transient tachypnea in the newborn, distress syndrome, bronchopulmonary dysplasia, need for ventilatory support, retinopathy of prematurity, and patent ductus arteriosus ([3]; versus placebo group): slightly but not significantly lower
- women needed to be treated to prevent one delivery before 32 weeks of gestation ([3]; women with similar risk level): 12 women
- health status or physical examination of the children ([4]; mean age at follow up 48 months, 194 children in 17-HPC group vs 84 placebo): No significant differences
- Ages and Stages Questionnaire (development in five areas) ([4]; mean age at follow up 48 months, versus placebo): no difference
- safety for the fetus ([4]; weekly intramuscular injection to the mother during second and third trimesters): appears to be safe for the fetus
